In patent US20110183963A1 (priority 2009, published 2011):

Legend:
[1] = cited from earlier work
[2] = tested on: leptin; conditions: chronic oral administration for a period of 6 weeks; cited from earlier work
[3] = target: T1, 5-HT1A receptor (Homo sapiens, UniProt P08908); conditions: relative to quetiapine; cited from earlier work
T1 sequence (P08908 1-422): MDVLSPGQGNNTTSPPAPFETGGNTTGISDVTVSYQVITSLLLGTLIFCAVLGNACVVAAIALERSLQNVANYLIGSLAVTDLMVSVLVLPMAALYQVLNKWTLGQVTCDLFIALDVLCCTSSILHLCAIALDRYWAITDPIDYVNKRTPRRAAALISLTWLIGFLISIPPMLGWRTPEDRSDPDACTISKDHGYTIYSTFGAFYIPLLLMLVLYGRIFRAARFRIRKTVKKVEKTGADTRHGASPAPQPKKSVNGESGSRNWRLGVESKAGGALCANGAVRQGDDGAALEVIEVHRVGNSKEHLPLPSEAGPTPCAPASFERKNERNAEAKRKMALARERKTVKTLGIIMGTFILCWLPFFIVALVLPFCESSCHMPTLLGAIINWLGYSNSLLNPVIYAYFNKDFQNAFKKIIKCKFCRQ

[4] = target: human NET (Homo sapiens, UniProt P23975); conditions: relative to quetiapine; cited from earlier work
human NET, sequence (P23975 whole entry): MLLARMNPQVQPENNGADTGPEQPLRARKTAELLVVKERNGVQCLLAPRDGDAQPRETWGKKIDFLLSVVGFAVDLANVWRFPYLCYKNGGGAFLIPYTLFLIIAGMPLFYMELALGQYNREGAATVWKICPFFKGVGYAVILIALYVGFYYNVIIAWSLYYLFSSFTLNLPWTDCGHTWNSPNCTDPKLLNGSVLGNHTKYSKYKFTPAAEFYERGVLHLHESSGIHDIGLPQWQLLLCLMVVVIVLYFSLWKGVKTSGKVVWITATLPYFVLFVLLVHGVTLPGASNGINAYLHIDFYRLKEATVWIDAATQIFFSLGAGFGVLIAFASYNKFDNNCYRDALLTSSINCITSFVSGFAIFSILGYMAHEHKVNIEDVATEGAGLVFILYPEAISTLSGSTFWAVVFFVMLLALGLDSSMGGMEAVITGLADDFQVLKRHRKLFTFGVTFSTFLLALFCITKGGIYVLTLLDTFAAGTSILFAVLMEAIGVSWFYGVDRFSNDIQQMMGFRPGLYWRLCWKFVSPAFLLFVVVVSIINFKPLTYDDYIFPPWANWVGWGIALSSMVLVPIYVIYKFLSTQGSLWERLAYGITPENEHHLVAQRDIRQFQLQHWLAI

[5] = to be dosed efficiently via oral gavage in rats

For OCCOCCN1CCN(C2=Nc3ccccc3Sc3ccccc32)CC1 [quetiapine, 2-(2-(4-(dibenzo[b,f][1,4]thiazepin-11-yl)piperazin-1-yl)ethoxy)ethanol], the Absolute bioavailability ([1]; estimated) is given as 9%, the “terminal half-life time for the drug's elimination” value ([1]; in vivo) is given as “about 7 hours” and the “increase in leptin release” value [2] is given as “about 37%”.
For c1ccc2c(c1)N=C(N1CCNCC1)c1ccccc1S2 [N-desalkyl-quetiapine, 4-(dibenzo[b,f][1,4]thiazepin-11-yl)piperazine], the “more potent than quetiapine at the 5-HT1A receptor” value [3] is given as 10 fold and the “higher avidity for inhibiting human NET than quetiapine itself” value [4] is given as “about 100 fold”.
With OCCOCCN1CCN(C2=Nc3ccccc3Sc3ccccc32)CC1 [fumarate] the “solubility for oral gavage dosing” value [5] was “not soluble enough”.
